This data set can be described thus: Solubility in methanol. The note with it: volume of methanol per 1 g salt; lower volume = better solubility.

For the molecule `NC(=O)c1ccc[n+](C2OC(CO)C(O)C2O)c1.[Br-]` [NR·Br, nicotinamide-β-D-ribofuranoside bromide], the “methanol needed for dissolving 1 g of the salt” value was 50 mL.
The result for `NC(=O)c1ccc[n+]([C@@H]2O[C@H](CO)[C@@H](O)[C@H]2O)c1.[Cl-]` [NR·Cl, nicotinamide-β-D-ribofuranoside chloride] reads 40 mL; that for “nicotinamide-β-D-ribofuranoside tosylate [NR·p-tosylate]”, 15 mL.
